Assays:
[1] = Lactate-protected hypoglycemia (HG-HL) in anesthetized pig with extracorporeal HLa infusion; assay type: in vivo
Protocol: Then, after hyperlactatemia was established, an insulin bolus and continuous infusion of insulin were titrated to achieve a [Glu] of between 1.3 and 1.7 mmol/L (25 to 30 mg/dL). Once the HG (1.5 mmol/L) HL(8 mmol/L) state was achieved, this was maintained for 4 h. Then normoglycemia was allowed to return.
This example entails achievement and sustaining [Glu] at ˜1.5 mmol/L for 4 hours in a pig under a [Lac] of 8 mmol/L.
The preparation started the day before the intervention at 17:00. No food was given to the pig after this time.
On the morning of the intervention the pig ate a small fatty snack combined with 500 mg of metformin. The inhibitory action of metformin on gluconeogenesis is expected to start within 3 h.
A bolus of 0.03 mg/kg medetomidine, a bolus of 4 mg/kg tiletamine-zolazepam and a bolus of 2 to 2.5 mg/kg 1% propofol were delivered intravenously. After intubation, volume-controlled ventilation was started. The respiratory rate was adjusted to target etCO2of 35 to 45 mmHg and a tidal volume of 8 to 10 ml/kg. The tidal volume was later adjusted when required on etCO2, pCO2 and pH. Then a 2-lumen dialysis catheter was surgically placed into the internal jugular vein. An unfractionated heparin bolus of 5000 IU (200 IU/kg) was administered and CVVH was initiated with unfractionated heparin (400 IU/ml) at 1 ml/h, titrated to an activated clotting time (ACT) of 250 to 300 seconds.
Counter-response inhibition was achieved by subsequent intravenous delivery of labetalol (5 mg/ml) at 3 ml/h titrated to a relative heart rate reduction of 10/m, and an intravenous bolus of 25 μg octreotide (10 μg/ml), then the octreotide continuous infusion was proportionally adjusted to keep [Glu] in the desired hypoglycemic range.
Depending on the subsequent [Glu], insulin infusion rates were varied between 0 to 60 U/h. If necessary, an additional bolus dose of insulin was given at least 30 minutes after the initial delivery using the same criteria as described before.
Once both a [Glu] of 1.3 to 1.7 and a [Lac] of 8 to 10 mmol/L was reached, this HG(1.5)HL(8) state was maintained for 4 hours using the clamping technique. Approximately halfway during the HG(1.5)HL(8)-phase the octreotide infusion was stopped as the T1/2 of octreotide is longer than T^1/2 of insulin and because sustained suppression of the hypoglycemic counter response by octreotide might prolong the duration of glucose 50% support during the normoglycemia restoration phase.
During the HG-HL phase, sliding scale adjustments of insulin and glucose 50% pumps were executed.
The glucose 50% infusion rate was adjusted and eventually tapered to zero until stable normoglycemia was achieved.

[2] = cited from earlier work

SMILES | arterial pH and sodium levels throughout the experiment ([1]; 30 kg pig, 40% HLa via veno-venous extracorporeal circuit, [Lac] 8 mmol/L, [Glu] ~1.5 mmol/L for 4 h, with insulin, glucose 50%, octreotide, labetalol, metformin) | hemodynamic instabilities, electrocardiographic or rhythm disturbances ([1]; 30 kg pig, HG(1.5)HL(8) state for 4 h) | time after end of the HG-HL-phase until normoglycemia without exogenous glucose or lactate support ([1]; 30 kg pig, after 4 h HG(1.5)HL(8)) | metabolic alkalosis or hypernatremia on administration of high doses ([1]; high doses of HLa instead of NaLa) | side effects of intravenous administration of large amounts [2]
CC(O)C(=O)O (centres unmarked) [HLa, lactic acid] | maintained within the desired range | no hemodynamic instabilities, electrocardiographic or rhythm disturbances were observed | 90 min | did not lead to metabolic alkalosis or hypernatremia | 
CC(O)C(=O)[O-].[Na+] (centres unmarked) [sodium lactate] |  |  |  |  | systemic metabolic alkalosis and hypernatremia

Source: patent US12514909B2, “Lactate-protected hypoglycemia to treat glycolysis dependent pathological conditions, in particular cancer” (priority 2018, dated 2026)
